Results taken from paper PMC12775124, “CUL4A-DDB1-DCAF10 is an N-recognin for N-terminally acetylated Src kinases” (Nature Communications, 2026).

Legend:
DCAF10 = assay: Peptide pull-down with quantitative MS, mouse liver lysate, DCAF10; format: binding
Protocol: Biotinylated 10-mer Nt-peptides (Nt-free, Nt-acetylated, and, where indicated, Nt-myristoylated; sequences in Supplementary Table 1) were synthesized with a C-terminal Lys3 spacer and biotin, immobilized on magnetic streptavidin beads, and incubated with HeLa or mouse liver lysates. After standardized washes, bound proteins were on-bead reduced/alkylated, digested with LysC/trypsin, desalted, and analysed by LC-MS in DIA mode (Orbitrap Exploris 480) as described previously[24]. Variants included endogenous Nt-sequences, swap and mutant (Ala-Ala-Ala or Nt-amino acids) peptides, and pairwise comparisons of conditions of interest.
Briefly, magnetic streptavidin beads (DynabeadsTM
Beads were then washed three times with PBS.
210 washing, 1 mg of HeLa lysates or 2 mg of liver lysates was taken, and lysis buffer (75
Lysates were incubated with streptavidin
HeLa pull-downs were washed twice with lysis buffer and twice
Liver pulldowns were washed twice with cold low salt buffer (50 mM
220 individually ventilated cages under a 12-h light/dark cycle and were provided with sterile
No animal procedures were performed specifically for this
230 of 1:100), and desalted/concentrated on C18 reversed phase stage tips as previously
526 Mass spectrometry measurements and raw file processing
527 Samples (peptide pull-downs, IPs and high-pH fractionations) were separated on an […]

CUL4A-DDB1-DCAF10 = assay: In vitro ubiquitination of Lyn-GFP variants by CUL4A-DDB1-DCAF10; format: biochemical, human; conditions: for Increase of in vitro ubiquitination under NMT1/2 siRNA: WT E3 complex, IP from NMT1/2 siRNA vs control DLD-1 cells
Text: Lyn^WT-GFP was ubiquitinated by the WT E3 complex in both conditions; however, unlike in vitro ubiquitination with endogenous Lyn (Fig. 5c, d), ubiquitination increased ~6-fold under NMT1/2 siRNA conditions. This is consistent with DCAF10 being limiting and overexpressed Lyn-GFP, accumulating an acetylated fraction available for DCAF10 in vitro. Then, we performed IPs for all Nt variants under NMT1/2 siRNA conditions (Fig. 6d, h–i). […] In vitro ubiquitination assays using untreated cell lysates led to similar results (Supplementary Fig. 7h, i).
Reactions contained E1, UBCH5B (E2), ubiquitin, Mg-ATP in ligation buffer and were incubated with bead-bound substrates, followed by washing and immunoblot detection of ubiquitinated species (anti-ubiquitin), with loading controls (anti-Lyn, -Fyn, -Src or -GFP) (n = 3 independent enzymatic assays). Complete reagent lists, complex preparation, substrate IP conditions, wash buffers, and gel/blot parameters are provided in the Supplementary Methods and Tables.
357 (v/v) glycerol, 2 mM TCEP, supplemented with Protease Inhibitor Cocktail), and lysed
358 by sonication. Lysates were cleared by centrifugation at 28,000 rpm for 45 min at 4 °C
359 using a JA-30.50 rotor (Beckman Coulter, Brea, CA, USA). The cleared and filtered (0.8
360 µm) lysate was applied to 1 mL of Strep-Tactin®XT 4Flow® resin (iba), pre-equilibrated
361 once with wash buffer (100 mM Tris-HCl pH 8.0, 150 mM NaCl, 1 mM EDTA) and lysis
362 buffer. The lysate was incubated on a tube roller for 16 h at 4 °C. After incubation, beads
363 were washed with 50 mL of lysis buffer. Bound proteins were eluted with 10 mL of lysis
364 buffer supplemented with 50 mM biotin, after 15 min incubation on a tube roller at 4 °C.
366 Superdex 200 10/300 or 16/60 SEC column (GE Healthcare, Chicago, IL, USA),
367 preequilibrated in SEC buffer (250 mM Tris pH 7.5, 250 mM NaCl, 10% (v/v) glycerol,
370 Purified proteins were visualized during and after the purification by SDS-gels containing
371 TCE (2,2,2-trichloroethanol)62. The identity of proteins was confirmed by WB and MS.
373 In vitro ubiquitination assays
374 The in vitro ubiquitination assays were performed as previously described8. In brief,
375 E1 (50 nM), UBCH5B (250 nM), ubiquitin (1.5 µg), Mg-ATP (3 mM), ligation buffer,
376 and water were pre-mixed. The premix was divided, and either CUL4A-RBX1-
378 RBX1DDB1 (-DCAF10) (250 nM each) was added. 15 μL of each premix were incubated
379 with substrates (endogenous Lyn or Lyn-GFP constructs) bound to beads for 1 h at 30°C
380 with shaking. Samples were then washed four to five times with a buffer containing 50 […]
382 EDTA, and loaded on a gradient gel (4–15%). Ubiquitination of substrates was assessed
383 by WB using an anti-ubiquitin antibody. Equal substrate loading was evaluated by anti- […]

## GCIKSKGKDSKK [Ac-Lyn, Nt-peptide of Lyn (aa 1–10 + KKK-biotin), Nt-acetylated]
DCAF10
  DCAF10 binding (in words): confirmed DCAF10 binding

## Lyn^WT-GFP: doxycycline-inducible C-terminally GFP-fused Lyn in DLD-1 Lyn KO cells
CUL4A-DDB1-DCAF10; Lyn-GFP variants, NMT1/2 siRNA
  In vitro ubiquitination (in words): robustly ubiquitinated by the WT E3 complex
CUL4A-DDB1-DCAF10
  Increase of in vitro ubiquitination under NMT1/2 siRNA: ~ 6 fold
CUL4A-DDB1-DCAF10; listed as LynWT–GFP
  Increase of in vitro ubiquitination under NMT1/2 siRNA: > 5 fold
